Measurements as given in patent US20110166107A1, “METHODS AND KITS FOR DETECTING RISK FACTORS FOR DEVELOPMENT OF JAW OSTEONECROSIS AND METHODS OF TREATMENT THEREOF” (UNIVERSITY OF FLORIDA RESEARCH FOUNDATION INC., priority 2008, published 2011).

Assay: Chart review of BONJ incidence in patients treated with bisphosphonates (UF / VAMC)
Format: in vivo, human
Conditions: outpatient bone marrow transplant clinic, all patients had myeloma; pamidronate only (total incidence 13%)
Excerpt: Medical and dental charts at the University of Florida (UF) and the associated Veterans Administration Medical Center (VAMC) were reviewed. […] There were 21 males. […] Fourteen patients had modest increases in their serum creatinine concentrations. The average number of previous chemo/radiotherapy regimens was 3.5. Nine patients had Thalidomide, 5 had Bortizomib. Primary disease status was as follows: 12 patients in clinical remission, 5 with stable disease and 10 with progressive disease. Eight patients received statin therapy and 6 had diabetes mellitus. The median length of treatment with BP before the diagnosis of BONJ was 28 months. BONJ involved the mandible in 21 patients, maxilla in 4 and both in 2 patients. The most frequent presentation was pain, swelling, and exposed bone (FIG. 1). […] The BONJ incidence differed among the 3 centers where these patients were treated. […] The incidence in the VAMC was 4.2% while the incidence in the Cancer Center clinic at UF was 1.7%. In the latter two groups, patients had mostly solid tumors. The results described herein are consistent with the reports of increased incidence of BONJ with greater duration of therapy and that myeloma patients are more likely to develop the complication than solid tumor patients.

NCCC(O)(P(=O)(O)O)P(=O)(O)O [pamidronate]
BONJ incidence: 4%
